These results are taken from patent publication US7160916B2, “Method of increasing bone density or treating osteoporosis” (Yung Shin Pharmaceutical Ind. Co., Ltd., priority 2003, dated 2007).

One assay concerns Primary osteoblast cells. Description: Assay of alkaline phosphatase activity in cultured osteoblasts. The assay is classed as cell-based, rat. Here is the method: Primary osteoblast cultures: Primary osteoblast cells were prepared from calvaria of 18-day-old fetal Sprague-Dawley (SD) rats according to the following method: Pregnant rats were put in anesthesia using intraperitoneal injection of trichloroacetaldehyde (200 mg/kg). The calvaria of the fetal rats were then dissected with aseptic technique. Soft tissues were removed under a dissecting microscope. The calvaria were divided into small pieces and then treated with 0.1% collagenase (Sigma Chemical, St. Louis, Mo.) solution for 10 minutes at 37° C. The cells released from the calvariae by two 20-minute sequential collagenase digestions were pooled and filtered through 70 μm nylon filters (Falcon, BD BioSciences, San Jose, Calif.). The cells were then grown on plastic cell culture dishes in 95:5 air-CO2 with Dulbecco's modified Eagle's medium (DMEM) (Gibco, Grand Island, N.Y.) which was supplemented with 20 mM HEPES and 10% heat-inactivated FCS, 2 mM-glutamine, penicillin (100 U/ml) and streptomycin (100 μg/ml) (pH adjusted to 7.6). The cell medium was changed twice a week. Osteoblasts were confirmed by morphology and expression of alkaline phosphatase (ALP). To examine the maturation of osteoblasts, cells were cultured for up to 14 days in a growth medium containing ascorbic acid (50 μg/ml) (Sigma Chemical, St. Louis, Mo.) and β-glycerophosphate (10 mM) (Sigma Chemical, St. Louis, Mo.) and the medium was changed every 3 day. Assay of alkalinephosphatase activity: Cells cultured in 6-well plates in the presence or absence of Indazole 1 were harvested in 1 ml of 0.2% Nonidet P-40 and cell suspension was disrupted by sonication. After centrifugation at 1500 g for 5 min, ALP activity in the supernatant was measured by the method of Lowry et al (1954) J Biol Chem 207:19–37.

The subject of a further assay is Male SD rats. Description: Local injection into proximal tibia, bone histomorphometry (bone growth). The assay is classed as in vivo, rat. The note with it: L-NAME 0.6 nmole/day given with Indazole 1, versus Indazole 1 alone. Here is the method: Assay of bone resorption of osteoclast: Osteoclast precursors were isolated from rat long bones as mentioned above. The cells were re-suspended in a complete DMEM medium and plated into a calcium phosphate apatite-coated 24-well plate, OAAS (Oscotec, OCT USA Inc.) at 1×10^6 cells/0.5 ml/well. The cells were cultured for 5 days in the presence of M-CSF (20 ng/ml) plus sRANKL (50 ng/ml). Indazole 1 was injected daily for additional 3 days in the absence of M-CSF and sRANKL. Culture was terminated on day 8 and the remaining cells in the plate were lysed using 1 N NaOH. Five images per well were obtained using an inverted microscope (200×), and resorbed area was measured using an image analyzer. Local injection Male SD rats weighing 70–88 gm were used. Implantation of a cannula (22G) was done from the posteriolateral side into the proximal tibial metaphysis in both limbs of rats anesthetized with pentobarbital. The cannula had its outer end in the subcutaneous tissue. Indazole 1 was percutaneously injected through the cannula into the proximal tibia once/day for 1 week. The same concentration of DMSO diluted with normal saline was injected into the right side for comparison. On day 14, the rats were sacrificed and tibiae were fixed in 10% formaldehyde for 48 h at 4° C. Bone histomorphometry: After formalin fixation of tibia was completed, the tibiae were then decalcified in 0.5 N hydrochloric acid, dehydrated in an ascending series of ethanol solution and acetone, and embedded in paraffin. Serial sections (5 μm) were cut longitudinally and stained with Mayer's hematoxylin-eosin solution (Yang et al. (1993) Calcif Tissue Int 52:57–61). Images of the growth plate and proximal tibia were photographed using a photoMicroGraphic Digitize integrate System (MGDS; Total-Integra Technology Co., Ltd., Taipei, Taiwan). Bone volume measurements were performed on the whole secondary spongiosa, which is located under the primary spongiosa and characterized by a network of larger trabeculae. Bone volumes were calculated using an image analysis software. All measurements were done in a single-blind fashion. Bone growth: Male young rats (SD) weighing 70–90 gm were divided into six groups. The average weight of the rats in each group was 73.9±1.1 gm. Indazole 1 was dissolved in DMSO and diluted with saline to a final concentration of 10 μM. One of the six groups was a control group, and the other groups were punctuated with a needle cannula alone, injected with a vehicle using a needle cannula (day 1, once), injected with Indazole 1 (day 1, once), injected with a vehicle using a needle cannula (days 1–7, daily), and injected with Indazole 1 (days 1–7, daily), respectively. […] Trabecular bone in the secondary spongiosa increased by 90% after local injection of Indazole 1 for 7 days.

With `COC(=O)[C@@]1(OC)C[C@H]2O[C@]1(C)n1c3ccccc3c3c4c(c5c6ccccc6n2c5c31)C(=O)N(C)C4` [KT5823], the “effect on the increase of ALP activity by Indazole 1” value (“effect on the increase” below) with Primary osteoblast cells (KT5823 2 μM) is given as “antagonized”.

Consider `COC(=O)[C@@H](N)CCCNC(=N)N[N+](=O)[O-]` [L-NAME, N^G-nitro-L-arginine-methylester, reference compound], for which the “effect on enhancement of bone formation in the secondary spongiosa by Indazole 1” value in the assay on Male SD rats is given as “significantly attenuated”. In addition, the “effect on the increase” value in the assay with Primary osteoblast cells (L-NAME 60 μM) is “antagonized”. As to `O=c1onc2cnc3ccccc3n12` [ODQ], the “effect on the increase” value with Primary osteoblast cells (ODQ 20 μM) is listed as “antagonized”.
